{"source": "patent EP3070175A1", "about": "“TEST FOR DETERMINING SUSCEPTIBILITY OR RESISTANCE TO POLYMYXINS IN ENTEROBACTERIACEAE” (Université de Fribourg, priority 2015, dated 2016)", "system": "enterobacterial strains", "test": "Polymyxin test: colorimetric detection of growth with polymyxin B as selective antibiotic", "format": "cell-based, Enterobacteriaceae", "details": "polymyxin B instead of colistin as selective antibiotic; all tested strains", "method": "Each inoculum was prepared by mixing 1 öse (10 µl) of a fresh culture of the tested bacteria in 5 ml of sterile NaCl 0.85% (at a density of 3 Mac Farland, i.e. about 10^9 CFU/ml).\n250 ml of reactive medium was prepared by mixing the compounds hereafter: • a broth powder of a non selective growth medium for bacteria, the Cation-Adjusted Mueller-Hinton broth (MHB-CA) : 6.25 g • a colour indicator, the phenol red : 0.0125 g • sterile distilled water 225 ml • sterile D (+)-glucose (10 %) anhydrous (sterilization by filtration) : 25 ml\nThe pH of the final reactive medium was adjusted to 6.6 and 6.7 with HCl 1M.\nColistin or polymyxin B was added or not at the concentration of 5 mg/L in the reactive medium. Standard colistin sulphate and polymyxin B were from Sigma Aldrich (Saint-Louis, France). Those antibiotic molecule powders were kept at 4°C before their use, whereas polymyxin dilutions were kept at -20°C.\nFor each strain, two wells of a plastic sterile plate with 96 shaped wells were inoculated in parallel with and without polymyxin (colistin sulphate or polymyxin B) in order to compare their colour change.\nPlastic sterile plates were from Sarstedt (Nümbrecht, Germany). The tray may be prepared as follows : • 1. […]\nThe results of the tests were recorded at 10 min (checking for no spontaneous colour change in the well) and then every hour for a maximum of 4 hours by visual inspection. […]"}
{"substance": "polymyxin B", "values": [{"measurement": "Results of the method of the invention compared with colistin", "value": "Identical results"}]}
